Assay results taken from publication PMC7412453, “SAR:s for the Antiparasitic Plant Metabolite Pulchrol. 1. The Benzyl Alcohol Functionality” (Molecules, 2020).
Like-named read-outs stand apart in the source and are kept apart here.

Experiments:
T. cruzi epimastigotes = test: Trypanocidal activity against T. cruzi epimastigotes (XTT); type: cell-based, Trypanosoma cruzi; conditions: for IC50: Trypanosoma cruzi, read-out: T. cruzi IC50; for selectivity ratio at 72 h: mouse (RAW 264.7 cells) / Trypanosoma cruzi (epimastigotes), RAW cell IC50 / T. cruzi IC50, read-out: T. cruzi SI (selectivity index, cytotoxicity/anti-protozoal activity)
Experimental: Trypanocidal activity was determined according to Muelas-Serrano with some modifications. […] Benznidazol (3.1–100 μg/mL) was used as the control drug. Assays were performed in triplicates.

[1] = test system: L. brasiliensis promastigotes; test: Leishmanicidal activity against L. brasiliensis promastigotes (XTT); conditions: for IC50: 72 h, read-out: L. brasiliensis IC50
Experimental: (§1) Evaluations against Leishmania parasites: Promastigotes of Leishmania-Leishmania: L. amazonensis, Clone 1, NHOM-BR-76-LTB-012 (Lma, donated by the Paul Sabatier Université, France) and Leishmania-Viannia: L. braziliensis M2904 C192 RJA (M2904, donated by Dr. Jorge Arévalo from Universidad Peruana Cayetano Heredia, Peru). All strains were cultured in Schneider’s insect medium, (pH 6.2) supplemented with 10% FBS and incubated at 26 °C. Medium changes were made every 72 h to maintain a viable parasitic population. Leishmanicidal activity was determined according to Williams with some modifications. Samples were dissolved in DMSO (maximum final concentration 1%) at 10 mg/mL. Promastigotes in logarithmic phase of growth, at the concentration 3 × 10^6 parasites/mL, were distributed (100 μL/well) in 96-well flat bottom microtiter plates. Samples with different concentrations (3.1–100 μg/mL) were added (100 μL). […] Assays were performed in triplicates. The microwell plates were incubated for 72 h at 26 °C. After incubation, a solution of XTT (1 mg/mL) in PBS (pH 7.0 at 37 °C) with PMS (0.06 mg/mL) was added (50 μL/well), and incubated for 3 h at 26 °C. The optical density of each well was measured and the IC50 values calculated.

[2] = Cytotoxicity in RAW cells (Resazurin); type: cell-based, murine; conditions: mouse
Experimental: Evaluations against RAW cells: The Raw 264.7 murine macrophage cell line was purchased from the American Type Culture Collection (ATCC-TIB71). The cells were maintained in DMEM-HG medium supplemented with 10% fetal bovine serum, 100 U/mL of penicillin and 100 μg/mL of streptomycin, and sodium bicarbonate (2.2 g/L) in humidified atmosphere at 37 °C with 5% CO2. Samples were prepared as described above and added (in 100 μL DMSO) at different concentrations (6.2–200 μg/mL). Medium blank, control drugs and cell growth controls were included to evaluate cell viability. The plates were incubated for 72 h at 37 °C with 5% CO2. After incubation for the indicated time, the cells were washed, after which 10 μL of Resazurin reagent (2.0 mM) was added. They were further incubated at 37 °C for 3 h in a humidified incubator. The IC50 values were assessed using a fluorometric reader (540 nm excitation, 590 nm emission) and the Gen5 software. All assays were performed in triplicate.

[3] = test system: L. amazoniensis promastigotes; test: Leishmanicidal activity against L. amazoniensis promastigotes (XTT); conditions: for IC50: Leishmania amazonensis, 72 h, read-out: L. amazoniensis IC50
Experimental: as §1, with “All” for “Evaluations against Leishmania parasites: Promastigotes of Leishmania-Leishmania: L. amazonensis, Clone 1, NHOM-BR-76-LTB-012 (Lma, donated by the Paul Sabatier Université, France) and Leishmania-Viannia: L. braziliensis M2904 C192 RJA (M2904, donated by Dr. Jorge Arévalo from Universidad Peruana Cayetano Heredia, Peru). All”

[4] = epimastigotes, 72 h at 26 °C, XTT, triplicates
[5] = L. brasiliensis SI (selectivity index, cytotoxicity/anti-protozoal activity), RAW cell IC50 / L. brasiliensis IC50
[6] = L. amazoniensis SI (selectivity index, cytotoxicity/anti-protozoal activity), RAW cell IC50 / L. amazoniensis IC50
[7] = RAW cells, 72 h at 37 °C, Resazurin, triplicate, read-out: Cytotoxicity IC50

COc1ccc2c(c1)-c1cc(C)ccc1C(C)(C)O2 [3a, 2-Methoxy-6,6,9-trimethyl-6H-benzo[c]chromene]
IC50 (T. cruzi epimastigotes; [4]): 51.1 ± 17.7 µM
selectivity ratio at 72 h (T. cruzi epimastigotes): 2
selectivity ratio at 72 h [1]: 1.4
IC50 [1]: 69.6 ± 5.9 µM
IC50 at 72 h [2]: 99.5 ± 22 µM
selectivity ratio at 72 h [3]: 1.2
IC50 [3]: 85.3 ± 5.9 µM

COc1ccc2c(c1)-c1cc(CCl)ccc1C(C)(C)O2 [3b, 9-(chloromethyl)-2-methoxy-6,6-dimethyl-6H-benzo[c]chromene]
IC50 (T. cruzi epimastigotes; [4]): 38.1 ± 0.4 µM
selectivity ratio at 72 h (T. cruzi epimastigotes): 1.6
IC50 [1]: 17.1 ± 0.1 µM
selectivity ratio at 72 h [1, 5]: 3.5
IC50 at 72 h [2]: 59.2 ± 14.5 µM
selectivity ratio at 72 h [3, 6]: 1.7
IC50 [3]: 35 ± 2.8 µM

COCc1ccc2c(c1)-c1cc(OC)ccc1OC2(C)C [3c, 2-Methoxy-9-(methoxymethyl)-6,6-dimethyl-6H-benzo[c]chromene]
IC50 (T. cruzi epimastigotes; [4]): 24.6 ± 3.5 µM
selectivity ratio at 72 h (T. cruzi epimastigotes): 1.3
IC50 [1]: 49.2 ± 15.8 µM
selectivity ratio at 72 h [1, 5]: 0.7
IC50 at 72 h [2]: 33.1 ± 2.1 µM
selectivity ratio at 72 h [3, 6]: 0.6
IC50 [3]: 56.3 ± 12 µM

COc1ccc2c(c1)-c1cc(COC(C)C)ccc1C(C)(C)O2 [3d, 9-(Isopropoxymethyl)-2-methoxy-6,6-dimethyl-6H-benzo[c]chromene]
IC50 (T. cruzi epimastigotes; [4]): 12.9 ± 0.3 µM
selectivity ratio at 72 h (T. cruzi epimastigotes): 2.5
selectivity ratio at 72 h [1]: 0.9
IC50 [1]: 35.2 ± 3.2 µM
IC50 at 72 h [2, 7]: 32 ± 0.3 µM
selectivity ratio at 72 h [3]: 0.9
IC50 [3]: 35.2 ± 3.8 µM

COc1ccc2c(c1)-c1cc(CNC(C)C)ccc1C(C)(C)O2 [3f, N-((2-Methoxy-6,6-dimethyl-6H-benzo[c]chromen-9-yl)methyl)propan-2-amine]
IC50 (T. cruzi epimastigotes; [4]): 70.6 ± 9.6 µM
selectivity ratio at 72 h (T. cruzi epimastigotes): 0.4
IC50 [1]: 83.5 ± 32.1 µM
selectivity ratio at 72 h [1, 5]: 0.4
IC50 at 72 h [2]: 29.5 ± 9.6 µM
selectivity ratio at 72 h [3, 6]: 0.4
IC50 [3]: 67.8 ± 13.8 µM

COc1ccc2c(c1)-c1cc(CNCC(C)C)ccc1C(C)(C)O2 [3g, N-((2-Methoxy-6,6-dimethyl-6H-benzo[c]chromen-9-yl)methyl)-2-methylpropan-1-amine]
IC50 (T. cruzi epimastigotes; [4]): 15.4 ± 4 µM
selectivity ratio at 72 h (T. cruzi epimastigotes): 0.8
IC50 [1]: 25.8 ± 6.2 µM
selectivity ratio at 72 h [1, 5]: 0.5
IC50 at 72 h [2]: 12.3 ± 1.2 µM
selectivity ratio at 72 h [3, 6]: 0.8
IC50 [3]: 15.4 ± 3.1 µM

COc1ccc2c(c1)-c1cc(CNCCC(C)C)ccc1C(C)(C)O2 [3h, N-((2-Methoxy-6,6-dimethyl-6H-benzo[c]chromen-9-yl)methyl)-3-methylbutan-1-amine]
IC50 (T. cruzi epimastigotes; [4]): 5.9 ± 1.2 µM
selectivity ratio at 72 h (T. cruzi epimastigotes): 1.3
IC50 [1]: 15.9 ± 0.9 µM
selectivity ratio at 72 h [1, 5]: 0.5
IC50 at 72 h [2]: 7.4 ± 2.4 µM
selectivity ratio at 72 h [3, 6]: 0.4
IC50 [3]: 17.7 ± 7.4 µM

COc1ccc2c(c1)-c1cc(COC(C)=O)ccc1C(C)(C)O2 [4a, (2-Methoxy-6,6-dimethyl-6H-benzo[c]chromen-9-yl)methyl acetate]
IC50 (T. cruzi epimastigotes; [4]): 14.4 ± 1.6 µM
selectivity ratio at 72 h (T. cruzi epimastigotes): 2.3
IC50 [1]: 28.8 ± 0.3 µM
selectivity ratio at 72 h [1, 5]: 1.1
IC50 at 72 h [2]: 32.7 ± 22.4 µM
selectivity ratio at 72 h [3, 6]: 1.2
IC50 [3]: 26.9 ± 0.6 µM

COc1ccc2c(c1)-c1cc(COC(=O)C(C)C)ccc1C(C)(C)O2 [4b, (2-Methoxy-6,6-dimethyl-6H-benzo[c]chromen-9-yl)methyl isobutyrate]
IC50 (T. cruzi epimastigotes; [4]): 8.8 ± 0.9 µM
selectivity ratio at 72 h (T. cruzi epimastigotes): 3
IC50 [1]: 17.6 ± 0.9 µM
selectivity ratio at 72 h [1, 5]: 1.5
IC50 at 72 h [2]: 26.4 ± 5.9 µM
selectivity ratio at 72 h [3, 6]: 1
IC50 [3]: 26.7 ± 2.4 µM

COc1ccc2c(c1)-c1cc(COC(=O)C(C)(C)C)ccc1C(C)(C)O2 [4c, (2-Methoxy-6,6-dimethyl-6H-benzo[c]chromen-9-yl)methyl pivalate]
IC50 (T. cruzi epimastigotes; [4]): 6.4 ± 0.1 µM
selectivity ratio at 72 h (T. cruzi epimastigotes): 3
selectivity ratio at 72 h [1]: 1.1
IC50 [1]: 17.4 ± 1.7 µM
IC50 at 72 h [2, 7]: 19.8 ± 0.9 µM
selectivity ratio at 72 h [3]: 1
IC50 [3]: 20.5 ± 0.6 µM

O=C(Cn1ccnc1[N+](=O)[O-])NCc1ccccc1 [Benznidazole, reference compound]
IC50 (T. cruzi epimastigotes; 72 h): 19.2 ± 7.7 µM
selectivity ratio at 72 h (T. cruzi epimastigotes): 3.9
IC50 at 72 h [2, 7]: 74.7 ± 9.1 µM

CCCCCCCCCCCCCCCCOP(=O)([O-])OCC[N+](C)(C)C [Miltefosine, reference compound]
IC50 [1]: 13 ± 1.2 µM
IC50 at 72 h ([2]; RAW 264.7 macrophage cells (ATCC-TIB71), RAW cells, 72 h at 37 °C, Resazurin, triplicate, read-out: Cytotoxicity IC50): 76.6 ± 3.2 µM
